The subject of data set [1] is Atoh1, Pou4f3, Myo7a expression in otic spheres. Nature of the data set: Otic sphere assay, hair cell gene expression. Type of data set: cell-based, mouse. How it is done:
The generation of otic spheres followed previously described protocols ([Oshima et al., 2009]) with modifications during differentiation phase to test GSIs. Briefly, OCs were dissociated and single cells were deposited in ultralow-cluster plates (Corning) and expanded in “full otic medium” consisting of DMEM/F12, supplemented with N2, B27 (Thermo Fisher), EGF (20 ng/ml; Chemicon), bFGF (10 ng/ml; Chemicon), IGF-1 (50 ng/ml; Chemicon), and heparan sulfate (50 ng/ml; Sigma-Aldrich). After culturing for 3–4 days at 37°C, spheres were collected, plated in cell culture-treated 96 well-plate and cultured in DMEM/F12, supplemented with N2, B27 with/without GSIs for 7 days after which they were lysed for RNA extraction.
(§1) Cells or tissue were lysed using RLT Lysis Buffer (Qiagen) and high purity RNA was prepared on the MagNA Pure instrument using MagNA Pure 96 Cellular RNA LV Kit (Roche). Reagents from Thermo Fisher were used for cDNA synthesis by reverse transcription using random hexamers. Resulting cDNA was RNAse H treated and amplified by TaqMan GEX mastermix and PCR primers and probes for human ATOH1 (Hs00944192_s1) and TBP (Hs00427620_m1), mouse Tbp (Mm00446971_m1), Atoh1 (Mm00476035_s1), Hes5 (Mm00439311_g1), Pouf4s (Mm04213795_s1), and Myo7a (Mm01274015_m1) on the Applied Biosystems QuantStudio 7 Flex Real-Time PCR System. Normalized to Tbp, relative gene expression fold-change was quantified and compared between experimental and control conditions by ΔΔCt calculation.
CPD3 and CPD8 were further compared for their potency to induce hair cell gene expression in otic sphere assays ([Oshima et al., 2009]). Cells were first expanded in presence of growth factors, and in a second step differentiated by growth factor removal and GSI treatment. […] This indicated a modest advantage of CPD3 in eliciting expression of the early hair cell marker Atoh1, but similar potency on expression of some later markers of HC differentiation, Pou4f3 and Myo7a (Figure 2A). From the results of two screening assays, CPD3 was selected for additional characterization studies based on its lower IC50 to induce Atoh1/ATOH1 expression in the otic spheres and LS174T cells, respectively.

Data set [2] is described as follows: Inner ear pharmacokinetics after transtympanic administration (perilymph, plasma; LC-MS/MS). Type of data set: in vivo, guinea pig. To be noted: 10% POX, sampled at 0.5, 1 and 6 h post-dosing. On the procedure:
Female albino Hartley guinea pigs, 250 g, from Charles River (France), housed in macrolon cages (2/cage; Innocage Rat Static-Innovive, Paris) with filter air, were maintained at 22 ± 2°C on a 12-h light cycle with standard A04C (UAR) diet and water “ad libitum.” Lgr5-GFP mice containing an EGFP-IRES-CreERT2 knock-in allele at the Lgr5 locus were obtained from the Jackson Labs (Stock 008875, C57BL/6J/RccHsd background). Atoh1-nGFP transgenic mice (C57Bl/6J background) were from Jane Johnson ([Lumpkin et al., 2003]). Wistar rats were obtained from Charles River.
γ-secretase inhibitors pharmacokinetic studies tested CPD3, CPD8 (Eli Lilly) or LY411575 (Stemcell Technologies) each formulated at 3.4 mg/ml in the following vehicles, 10% Poloxamer 338 (Sigma), 20% Poloxamer 338, 70% PEG400 (Sigma) or 1% hyaluronic acid (HA-700; Lifecore, Chaska, MN, United States) all prepared with PBS (pH 6.2). A single 70 μl injection of the formulated compound (total dose, 870 μg/kg) was delivered to the middle ear space of isoflurane-anesthetized guinea pigs by transtympanic administration. Perilymph from treated animals (perilymph volumes, >2 μl) was collected at time points up to 48 h post-administration (CILcare, Montpellier, France). Briefly, concentrations of each compound in perilymph and plasma, as well as controls prepared in artificial perilymph, were measured by LC-MS/MS on an AB Sciex, API 4000 mass spectrometer using an Onyx C18 5 μm 50^∗2.0 mm separation column (Oroxcell, Romainville, France).
To verify this, in vivo compound concentrations were measured in perilymph of guinea pigs after intratympanic delivery of GSIs into the middle ear. Initially, four vehicle formulations, with different physical properties, were tested, poloxamer 338 (POX; at 10% or 20%), hyaluronic acid (HA), or polyethylene glycol 400 (PEG). For this comparison only one GSI was prepared in each formulation (CPD3, 3.4 mg/ml) and a single dose was injected into the middle ear. Perilymph and plasma were sampled for 48 h (Figure 1D). […] Next, using only 10% POX as vehicle, inner ear adsorption was compared between CPD3, CPD8, and LY411575 by transtympanic injections (Figure 1D, inset). […] Each compound achieved levels several folds above their respective IC50s. The mean maximal perilymph concentration of CPD3 at 0.5 h post-dosing was 85,489 ng/ml (183 μM), then declined at 1 h to 12,928 ng/ml (27.7 μM), and at 6 h to 12,652 ng/ml (27.1 μM). GSIs in plasma samples were not detected (data not shown).

Data set [3] deals with Notch-dependent expression of ATOH1 in LS174T cells. Nature of the data set: ATOH1 expression induction in LS174T cell line by GSIs (RT-PCR). Type of data set: cell-based, human. To be noted: GSI treatment 72 h, fold-change vs 0.05% DMSO, read-out: IC50 for ATOH1 expression upregulation. On the procedure:
The human colon cancer cell line LS174T (CL-188; ATCC) was cultured without antibiotics in 1% FBS/Eagle’s Minimum Essential Medium (MEM; Thermo Fisher) ([Asakura et al., 2018]). […]
as §1
Statistical analysis was performed with GraphPad Prism software (Prism9; GraphPad Software Inc., San Diego, CA, United States). For explant cultures, when the number of explants/replicates was not sufficient to test for Gaussian distribution normal distribution of the data was assumed based on previous experiments ([Perny et al., 2017]; [Erni et al., 2019]). Alternatively, the distribution of the datasets was tested by D’Agostino and Pearson normality test. Unpaired t-tests were used to compare parametric data sets of two groups. Welch’s correction was applied if variances were not equal. For non-parametric data, the Mann–Whitney test was adopted. One-way ANOVA was used to determine the difference in means among multiple groups and multiple comparison correction was tested. Graphs indicate the single data point, the mean values ± standard deviation. IC50s were calculated by non-linear regression of data normalized by percent change from controls to compare multiple experiments. Differences in IC50s from Best fit data were compared by Least Squares (F-test; Extra sum of squares; alpha = 0.05).
To measure the relative potency between different GSIs, a pharmacological assay was initially used to identify the dose ranges effective to induce ATOH1 expression. The cell line LS174T, a human colorectal adenocarcinoma, was used to evaluate Notch-dependent expression of ATOH1 ([Kazanjian et al., 2010]). Two compounds from Eli Lilly, designated LY3056480 (CPD3) and LY3056359 (CPD8) (Figures 1A,B) were compared with the commercially available GSIs LY411575 and DAPT. […] The intermediate potency of CPD3 and 8 was likely to be adequate to achieve levels above the IC50 after dilution into perilymph in the inner ear.

Data set [4] deals with hair cell genes Atoh1, Pou4f3, Myo7a in OC explants. Nature of the data set: Hair cell gene expression in organ of Corti explants (RT-PCR). Format: cell-based, mouse. To be noted: 5 μM, 4 days, vs DMSO. How it is done:
OC explants were isolated from postnatal day 2 (P2) Wistar rats, P0-P2 mice (Lgr5-GFP or Atoh1-nGFP mice). Dissection of the cochlea under a stereomicroscope (Nikon SMZ800, Japan) allowed OC separation from stria vascularis and modiolus, and the sensory epithelium was plated with hair cells facing up on Cell-Tak (Corning, United States)-coated transwell-clear inserts (6-well format, 0.4 μm pore, Corning, United States). Dissection medium was exchanged for 1.5 ml full otic medium supplemented with 10% FBS (Invitrogen) and 0.01% Ampicillin (Sigma), added under the insert membrane, maintaining the OC under a thin film of medium during culture at 37°C. 5-ethyl-2′-deoxyuridine (EdU, 5 μM, Life Technologies) was added directly in the medium when indicated.
Concentrations of small molecule GSIs {LY411575, CPD3, CPD8, DAPT (N-[N-(3,5-Difluorophenacetyl)-L-alanyl]-S-phenylglycine t-butyl ester; Sigma)} were prepared in DMSO and are indicated in Figure Legends and Results. DMSO included as Control. Treatment groups were assigned randomly.
as §1
FIGURE 2 GSI-mediated induction of hair cell gene expression and de novo generation of hair cells in the neonatal cochlear sensory epithelium. (A) Gene expression changes of Atoh1, Pou4f3, and Myo7a in response to Notch pathway inhibition by CPD3 (solid lines, triangles) and CPD8 (dashed lines, open square) in otic spheres. Gene expression is reported as fold-change relative to carrier control-treated (DMSO, 0.05%). (n = 9–12). […] (B) Gene expression analysis for the hair cell genes Atoh-1, Myo7a, and Pou4f3. DMSO control n = 13, CPD3 n = 12, LY411575 n = 9, DAPT n = 6 from 2–4 independent experiments. OC explants were cultured for 4 days with/without GSI prior to lysis and analysis. One-way ANOVA with Dunnett’s multiple comparison test, each condition compared to DMSO control. (*p < 0.05, **p < 0.005, ***p < 0.001). (C) Cell counts of Atoh1 positive HCs (OHC left, IHC right) in the mouse cochlear sensory epithelium in the mid-apex region after 7 days in culture with different γ-secretase inhibitors. One-way ANOVA Dunnett’s multiple comparison test, each condition compared to DMSO control. (*p < 0.05; n = 3–5 independent experiments). (D) Quantification of Pou4f3 positive HCs (OHC left, IHC right) in the cochlear sensory epithelium from P2 rats in the apical domain after 8 days in culture with different γ-secretase inhibitors. One-way ANOVA with Dunnett’s multiple comparison test, each condition compared to DMSO control (*p < 0.05, n = 3). Representative immunohistological images of the apical domain after 8 days incubation (inset). scale bar = 20 μm. (E) Quantification of Pou4f3 positive OHCs in the apex, middle and basal domain of organ of Corti explants from rats after 4 days of CPD3 treatment compared to DMSO (*p < 0.05, unpaired t-test) n = 4–6 explants from 2 independent experiments.

In general, IC50 refers to the concentration needed to halve the response being measured.

Where two headings read alike, the source gives them in different places.

Regarding `C[C@H](NC(=O)CCC(F)(F)F)C(=O)N[C@@H]1C(=O)C=C2N(CCC2(C)C)c2ncccc21` [CPD8], the concentration for half-maximal inhibition (IC50) was 303 nM in data set [1] (Mus musculus, 168 h, 7 days differentiation with GSI, read-out: IC50 for Atoh1 upregulation) and 62 nM in data set [3] (Homo sapiens). In addition, in data set [1] (dose-responsive, p < 0.05), the “Induction of Atoh1, Pou4f3 and Myo7a expression” value was “significantly induced”. For the same compound, the Perilymph concentrations quantifiable result in data set [2] was “quantifiable at all time points”.

In data set [4], `C[C@H](NC(=O)Cc1cc(F)cc(F)c1)C(=O)N[C@H](C(=O)OC(C)(C)C)c1ccccc1` [DAPT, N-[N-(3,5-Difluorophenacetyl)-L-alanyl]-S-phenylglycine t-butyl ester] came in with an Atoh1 expression of 2.36 ± 0.39 fold, a Myo7a expression of 1.59 ± 0.21 fold and a Pou4f3 expression of 2.14 ± 0.36 fold. For the same compound, the IC50 in data set [3] came out at 1400 nM.

Values taken from paper PMC8414802, “Hair Cell Generation in Cochlear Culture Models Mediated by Novel γ-Secretase Inhibitors” (Frontiers in Cell and Developmental Biology, 2021).
